Earlier results on one compound are cited in US7625898B2, “Posaconazole polymer conjugates and methods of treatment using posaconazole and polymer conjugates thereof” (Enzon Pharmaceuticals, Inc., priority 2007, dated 2009).

The conditions of this data set: background statement on unmodified posaconazole.

SMILES strings stand for the structures. Where only a bound is given, the exact number is not on record here.

Regarding `CC[C@@H]([C@H](C)O)n1ncn(-c2ccc(N3CCN(c4ccc(OC[C@@H]5CO[C@@](Cn6cncn6)(c6ccc(F)cc6F)C5)cc4)CC3)cc2)c1=O` [Posaconazole, posaconazole], the water solubility is less than 2 µg/mL.
